Experiments:
[1] = system: men and women with OAB; test: Phase 2b study of vibegron in OAB, Part 1, efficacy at Week 8 (voiding diary); type: in vivo, human; conditions: tolterodine ER 4 mg
From the text: Part 2 was designed to continue to assess the safety and efficacy of concomitant dosing. […] Subjects in both Part 1 and Part 2 had the option of enrolling in a 1-year extension. Participants were required to keep a voiding diary, recording the occurrence of each strong urge, total incontinence, and urge incontinence episode. Efficacy data for Part 1 and Part 2 are summarized herein.
The total number of urgency incontinence episodes must have exceeded the total number of stress incontinence episodes for all subjects.

[2] = system: men and women with overactive bladder; test: Phase 3 study (75 mg), patient-reported outcomes (OAB-q LF, PGI); type: in vivo, human; set-up: OAB-q sleep score, improvement greater than placebo / HRQL Total Score, improvement greater than placebo / OAB-q HRQL Total Score, Active - Placebo LS Means Difference: scale not given here
From the text: Patients completed paper questionnaires at the site at the start of each required study visit to assess patient-perceived symptom relief, symptom bother, and health-related quality of life at the study visits. […] These included the following questionnaires:
1. Global Impression Items include Patient Global Impression of Severity (PGI-Severity), Patient Global Impression of Control (PGI-Control), Patient Global Impression of Frequency (PGI-Frequency), Patient Global Impression of Leakage (PGI-Leakage), and Patient Global Impression of Change (PGI-Change).
2. Overactive Bladder Questionnaire (OAB-q long form [OAB-q LF], 1-week recall) is a 33-item patient-administered, disease-specific questionnaire that includes a Health-Related QoL (HRQL) scale (25 items) and a Symptom Bother Scale (8 items). The HRQL is a multidomain concept that represents the patient's general perception of the effect of illness and treatment on physical, psychological, and social aspects of life. […] In the present study, the HRQL scale is divided into 4 subscales: Coping, Concern/Worry, Sleep, and Social Interaction. The Coping subscale (also referred to as the coping domain score) was a secondary endpoint, with items scored from 1 (none of the time) to 6 (all the time), with higher scores indicating better QoL. The HRQL total score is calculated by summating the individual HRQL subscale scores. The Symptom Bother Scale items are scored from 1 (not at all) to 6 (a very great deal), with higher Symptom Bother scores indicating greater symptom severity. The instrument was developed and validated in both continent and incontinent OAB patients, including both men and women.
With the exception of the symptom bother score, a responder was defined as having a change from baseline ≥10. For symptom bother score, a responder was defined as having a change from baseline […]. A higher proportion of patients represented a favorable response.

[3] = 50% Total Incontinence Responders, Week 12
[4] = Week 12, responder = change from baseline ≥10

`Cc1ccc(O)c([C@H](CCN(C(C)C)C(C)C)c2ccccc2)c1` [Tolterodine ER, tolterodine, reference compound] was tested, and the “Change from baseline in volume voided per micturition at Week 8, difference from placebo in LS means” value [1] was 30.77 mL, the “Micturitions: adjusted difference from placebo at Week 8, difference in LS means (MMRM)” value [1] was −0.6 and the “Micturitions: change from baseline at Week 8, mean” value [1] was −1.73. The “Micturitions: daily number of events, Week 8 mean” value [1] was 9.24, the “Micturitions: difference from placebo at Week 8, difference in LS means (cLDA)” value [1] was −0.54 and the “Urgency episodes: adjusted difference from placebo at Week 8, difference in LS means (MMRM)” value [1] was −1.0. For the same molecule, the “Urgency episodes: change from baseline at Week 8, mean” value [1] was −2.52, the “Urgency episodes: daily number of events, Week 8 mean” value [1] was 3.91 and the “Urgency episodes: difference from placebo at Week 8, difference in LS means (cLDA)” value [1] was −0.94. For the same molecule, the “Total incontinence episodes: adjusted difference from placebo at Week 8, difference in LS means (MMRM)” value ([1]; OAB Wet subjects) was −0.3, the “Total incontinence episodes: change from baseline at Week 8, mean” value ([1]; OAB Wet subjects) was −1.80 and the “Total incontinence episodes: daily number of events, Week 8 mean” value ([1]; OAB Wet subjects) was 1.32. For the same molecule, the “Total incontinence episodes: difference from placebo at Week 8, difference in LS means (cLDA)” value ([1]; OAB Wet subjects) was −0.34, the “Urgency incontinence episodes: adjusted difference from placebo at Week 8, difference in LS means (MMRM)” value ([1]; OAB Wet subjects) was −0.4 and the “Urgency incontinence episodes: change from baseline at Week 8, mean” value ([1]; OAB Wet subjects) was −1.67. The “Urgency incontinence episodes: daily number of events, Week 8 mean” value ([1]; OAB Wet subjects) was 1.15, the “Urgency incontinence episodes: difference from placebo at Week 8, difference in LS means (cLDA)” value ([1]; OAB Wet subjects) was −0.46 and the “OAB-q Coping Subscore, Change from baseline at week 12, LS Means (SE)” value [2, 3] was 18.5 (1.49). The “OAB-q Coping Subscore, Mean” value [2, 3] was 81.66 (20.882), the “OAB-q Symptom Bother Subscore, Change from baseline at week 12, LS Means” value [2, 3] was −21.7 and the “OAB-q Symptom Bother Subscore, Mean” value [2, 3] was 24.70. For the same molecule, the “Change from Baseline in PGI-Control, LS Mean” value ([2]; 75% UUI Responders, Week 4) was −0.7 (0.07), the “PGI-Control, Mean (SD)” value ([2]; 75% UUI Responders, Week 4) was 2.51 (0.907) and the “Change from Baseline in PGI-Control, LS Mean” value ([2]; 75% UUI Responders, Week 8) was −1.0 (0.07). For the same molecule, the “PGI-Control, Mean (SD)” value ([2]; 75% UUI Responders, Week 8) was 2.18 (0.861), the “Change from Baseline in PGI-Control, LS Mean” value ([2]; 75% UUI Responders, Week 12) was −1.1 (0.07) and the “OAB-q Coping Subscore, Change from baseline at week 12, LS Means (SE)” value ([2]; 75% UUI Responders, Week 12) was 18.4 (1.73). The “OAB-q Coping Subscore, Mean (SD)” value ([2]; 75% UUI Responders, Week 12) was 83.05 (20.409), the “OAB-q Symptom Bother Subscore, Change from Baseline at Week 12, LS Means (SE)” value ([2]; 75% UUI Responders, Week 12) was −22.7 (1.60) and the “OAB-q Symptom Bother Subscore, Mean (SD)” value ([2]; 75% UUI Responders, Week 12) was 22.59 (17.919). For the same molecule, the “PGI-Control, Mean (SD)” value ([2]; 75% UUI Responders, Week 12) was 2.05 (0.862), the “OAB-q Concern Subscore, Week 12 Mean (SD)” value ([2]; Week 12) was 80.93 (21.467) and the “OAB-q Concern responders, Difference from Placebo” value ([2]; Week 12) was 7.2. The “OAB-q Concern, Active - Placebo LS Means Difference” value ([2]; Week 12) was 4.4, the “OAB-q Concern, change from baseline LS Means (SE)” value ([2]; Week 12) was 14.7(1.32) and the “OAB-q Coping Score, Active - Placebo LS Means Difference” value ([2]; Week 12) was 3.1. The “OAB-q Coping Score, change from baseline LS Means (SE)” value ([2]; Week 12) was 15.9 (1.39), the “OAB-q Coping Sub score, Week 12 Mean (SD)” value ([2]; Week 12) was 77.77 (23.439) and the “OAB-q Coping responders, Difference from Placebo” value ([2]; Week 12) was 6.9. The “OAB-q HRQL Total Score, Active - Placebo LS Means Difference” value ([2]; Week 12) was 2.9, the “OAB-q HRQL Total Score, change from baseline LS Means (SE)” value ([2]; Week 12) was 13.6 (1.19) and the “OAB-q Sleep Subscore, Week 12 Mean (SD)” value ([2]; Week 12) was 74.25 (23.140). The “OAB-q Sleep responders, Difference from Placebo” value ([2]; Week 12) was −0.5, the “OAB-q Sleep, Active - Placebo LS Means Difference” value ([2]; Week 12) was 2.6 and the “OAB-q Sleep, change from baseline LS Means (SE)” value ([2]; Week 12) was 12.9 (1.42). For the same molecule, the “OAB-q Social Interaction Subscore, Week 12 Mean (SD)” value ([2]; Week 12) was 88.35 (18.214), the “OAB-q Social Interaction responders, Difference from Placebo” value ([2]; Week 12) was 2.2 and the “OAB-q Social Interaction, Active - Placebo LS Means Difference” value ([2]; Week 12) was 0.6. The “OAB-q Social Interaction, change from baseline LS Means (SE)” value ([2]; Week 12) was 9.4 (1.03), the “OAB-q Symptom Bother Subscore, Week 12 Mean (SD)” value ([2]; Week 12) was 29.33 (19.568) and the “OAB-q Symptom Bother responders, Difference from Placebo” value ([2]; Week 12) was 8.2. The “OAB-q Symptom Bother, Active - Placebo LS Means Difference” value ([2]; Week 12) was −4.6, the “OAB-q Symptom Bother, change from baseline LS Means (SE)” value ([2]; Week 12) was −17.4 (1.31) and the “OAB-q Total HRQL Score, Week 12 Mean (SD)” value ([2]; Week 12) was 80.07 (19.826). The “OAB-q Total HRQL responders, Difference from Placebo” value ([2]; Week 12) was 3.1, the “OAB-q Symptom Bother responders, %” value ([2]; Week 12, responder = change from baseline ≤−10) was “(66.5) %” and the “OAB-q Concern responders, %” value [2, 4] was “(57.0) %”. For the same molecule, the “OAB-q Coping responders, %” value [2, 4] was “(61.3) %”, the “OAB-q Sleep responders, %” value [2, 4] was “(51.3) %” and the “OAB-q Social Interaction responders, %” value [2, 4] was “(37.4) %”. For the same molecule, the “OAB-q Total HRQL responders, %” value [2, 4] was “(51.8) %”, the “OAB-q Concern responders, Odds Ratio” value ([2]; Week 12, vs placebo) was 1.6 and the “OAB-q Coping responders, Odds Ratio” value ([2]; Week 12, vs placebo) was 1.5. For the same molecule, the “OAB-q Sleep responders, Odds Ratio” value ([2]; Week 12, vs placebo) was 1.1, the “OAB-q Social Interaction responders, Odds Ratio” value ([2]; Week 12, vs placebo) was 1.2 and the “OAB-q Symptom Bother responders, Odds Ratio” value ([2]; Week 12, vs placebo) was 1.6. The “OAB-q Total HRQL responders, Odds Ratio” value ([2]; Week 12, vs placebo, logistic regression) was 1.3.

Source: patent US20230027066A1 (Urovant Sciences GmbH, priority 2019, published 2023)
